# Source: patent US7629150B2, “Transformed cell harboring DNA or RNA encoding sugar chain synthesizing agent having β1,3-N-acetylglucosaminyltransferase activity” (Kyowa Hakko Kirin Co., Ltd., priority 2000, dated 2009)
# Molecular target: T1, G6sec2 (Homo sapiens, UniProt Q9BYG0)
# T1 construct: made in house; host or cells: Sf21 insect cells infected with pVL1393-F2G6sec2-derived recombinant baculovirus
# T1 sequence (Q9BYG0 39-378): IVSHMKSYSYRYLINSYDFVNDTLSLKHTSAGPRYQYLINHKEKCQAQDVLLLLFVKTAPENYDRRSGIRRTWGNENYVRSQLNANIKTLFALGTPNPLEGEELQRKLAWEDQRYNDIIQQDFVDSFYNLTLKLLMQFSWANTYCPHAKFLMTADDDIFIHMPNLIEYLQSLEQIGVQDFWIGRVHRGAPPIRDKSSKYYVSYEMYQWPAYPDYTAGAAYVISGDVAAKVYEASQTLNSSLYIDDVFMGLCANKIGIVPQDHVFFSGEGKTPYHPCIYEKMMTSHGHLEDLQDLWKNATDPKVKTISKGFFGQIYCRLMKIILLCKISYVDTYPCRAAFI
# Assay: β1,3-N-acetylglucosaminyltransferase activity of purified FLAG peptide-fused G6 polypeptide, 2-aminobenzamide-labeled oligosaccharide substrates
# Assay type: biochemical
# Conditions: for Relative activity (%) Test 1 G6sec2 / Relative activity (%) Test 2 G6sec2: 2-aminobenzamide-labeled oligosaccharides, LNnT defined as 100%; for Relative activity (%) Test 2 G6sec2: enzyme prepared again
# Procedure: β1,3-N-Acetylglucosaminyltransferase activity of the FLAG peptide-fused G6 polypeptide secreted and produced in insect cells was measured by using the eluate prepared in Example 8(6). The method of Example 7 was used for the activity measurement.
# As substrates, oligosaccharides [LNnT, Galβ1-4GlcNAcβ1-3Galβ1-4GlcNAc (hereinafter referred to as “2LN”), Galβ1-4GlcNAcβ1-3Galβ1-4GlcNAcβ1-3Galβ1-4GlcNAc (hereinafter referred to as “3LN”), Galβ1-4GlcNAcβ1-3Galβ1-4GlcNAcβ1-3Galβ1-4GlcNAcβ1-3Galβ1-4GlcNAc (hereinafter referred to as “4LN”), Galβ1-4GlcNAcβ1-3Galβ1-4GlcNAcβ-3Galβ1-4GlcNAcβ1-3Galβ1-4GlcNAcβ1-3Galβ1-4GlcNAc (hereinafter referred to as “5LN”), or Galβ1-4(SO3-6)GlcNAcβ1-3Galβ1-4(SO3-6)GlcNAc (hereinafter referred to as “L2L2”)] were labeled with 2-aminobenzamide and used. 2-Aminobenzamide-labeling of oligosaccharides was carried out using SIGMA 2AB glycan labeling kit (manufactured by Oxford Glycoscience) according to the manufacture's instructions of the kit. LNnT was purchased from Oxford Glycosystems. Other oligosaccharides were obtained from Seikagaku Corporation.
# Specifically, the reaction was carried out at 37° C. for 16 hours in 20 μl of an assay solution [150 mmol/l sodium cacodylate (pH 7.2), 50 mmol/l UDP-GlcNAc (manufactured by SIGMA), 0.4% Triton CF-54, 10 mmol/l MnCl2, 5 μmol/12-aminobenzamide-labeled sugar chain substrate, the above purified enzyme solution], and then the product was detected by high performance liquid chromatography (HPLC, details will be described below). As the enzyme, an eluate (1.5 μl) prepared from a culture supernatant of Sf21 infected with the recombinant virus derived from pVL1393-F2G6sec1 or an eluate (1.4 μl) prepared from a culture supernatant of Sf21 infected with the recombinant virus derived from pVL1393-F2G6sec2, prepared in Example 8(6), was used.
# The assay solution after completion of the reaction was treated at 100° C. for 5 minutes and then mixed with 50 μl of pure water for HPLC and centrifuged at 10,000×g for 5 minutes to obtain the supernatant. To a tube containing the assay solution, 50 μl of pure water for HPLC was added again, the tube was washed, and suparnatant was obtained by centrifugation at 10,000×g for 5 minutes and was combined with the first supernatant. Next, the supernatant was passed through Ultrafree-MC column (manufactured by Millipore) and a portion thereof (10 μl) was subjected to HPLC. The Ultrafree-MC column was used according to the method described in the manufacture's instructions attached thereto.
# The HPLC was carried out using TSK-gel ODS-80Ts Column (4.6×300 mm; manufactured by TOSOH) as a column and 0.02 mol/l ammonium acetate buffer containing 7% methanol (pH 4.0) as an eluant at an elution temperature of 50° C. and a flow rate of 1 ml/min.
# The product was detected using a fluorescence spectrophotometer FP-920 (manufactured by JASCO Corporation) (excitation wavelength: 330 nm, radiation wavelength: 420 nm).
# Also, a purified enzyme (G6sec2) was again prepared using the method shown in Example 8(6), its substrate specificity was again examined, and the results are also shown in Table 1 (Test 2 in Table 1). The purified enzyme (280 μl) was prepared from 30 ml of a culture supernatant of Sf21 infected with the recombinant virus derived from pVL1393-F2G6sec2, and the assay was carried out using a 4 μl portion thereof. Relative activities when the activity measured using 2-aminobenzamide-labeled LNnT as the substrate is defined as 100% are shown in the table.
SMILES,Relative activity (%) Test 1 G6sec2 [%],Relative activity (%) Test 2 G6sec2 [%],"conversion efficiency of the substrate into the product (G6sec2 eluate 1.4 μl, 2-aminobenzamide-labeled substrate, 37° C., 16 hours (Test 1)) [%]","conversion efficiency into the product (G6sec2 prepared again, 4 μl, 2-aminobenzamide-labeled substrate (Test 2)) [%]"
"CC(=O)N[C@H]1[C@H](O[C@H]2[C@@H](O)[C@@H](CO)O[C@@H](O[C@H]3[C@H](O)[C@@H](NC(C)=O)C(O)O[C@@H]3CO)[C@@H]2O)O[C@H](CO)[C@@H](O[C@@H]2O[C@H](CO)[C@H](O)[C@H](O)[C@H]2O)[C@@H]1O (stereo partly drawn) [2LN, Galβ1-4GlcNAcβ1-3Galβ1-4GlcNAc]",86.8,65.3,–,–
"CC(=O)N[C@H]1[C@H](O[C@H]2[C@@H](O)[C@@H](CO)O[C@@H](O[C@H]3[C@H](O)[C@@H](O)C(O)O[C@@H]3CO)[C@@H]2O)O[C@H](CO)[C@@H](O[C@@H]2O[C@H](CO)[C@H](O)[C@H](O)[C@H]2O)[C@@H]1O (mixture of isomers) [LNnT, lacto-N-neotetraose]",100,100,11.2,26.2
